In PubChem BioAssay AID1259407 (Chemical Carcinogenesis Research Information System (CCRIS), 2018) one finds mutagenic call data, which are given here for six compounds.

This series deals with CCRIS mutagenicity, Ames/micronucleus/aberration tests. The experiment in a line: CCRIS mutagenicity studies.
Where [1] appears, read: Test System: AMES SALMONELLA TYPHIMURIUM, Strain/Indicator: TA98, Metabolic Activation: NONE, Method: STANDARD PLATE.
Where [2] appears, read: Test System: AMES SALMONELLA TYPHIMURIUM, Strain/Indicator: TA98, Metabolic Activation: RAT, LIVER, S-9, AROCLOR 1254, Method: STANDARD PLATE.
[3] abbreviates: Test System: AMES SALMONELLA TYPHIMURIUM, Strain/Indicator: TA100, Metabolic Activation: NONE, Method: PREINCUBATION
Setting [4] is: Test System: AMES SALMONELLA TYPHIMURIUM, Strain/Indicator: TA100, Metabolic Activation: NONE, Method: STANDARD PLATE.
Where [5] appears, read: Test System: AMES SALMONELLA TYPHIMURIUM, Strain/Indicator: TA1535, Metabolic Activation: NONE, Method: PREINCUBATION
Where [6] appears, read: Test System: AMES SALMONELLA TYPHIMURIUM, Strain/Indicator: TA1537, Metabolic Activation: NONE, Method: PREINCUBATION

Active and inactive are the calls of the source. The rule behind the calls is not given here.

For `c1ccc(C2CO2)cc1` (centres undefined), the mutagenic call is “active; positive (structural changes)” (End Point: IN VITRO CHROMOSOMAL ABERRATIONS, Test System: CHL CELLS, Metabolic Activation: RAT, LIVER, S-9, SODIUM PHENOBARBITAL AND 5,6-BENZOFLAVONE); “active; positive” (Test System: AMES SALMONELLA TYPHIMURIUM, Strain/Indicator: TA97, Metabolic Activation: NONE, Method: STANDARD PLATE); “inactive; negative” (Test System: AMES SALMONELLA TYPHIMURIUM, Strain/Indicator: TA97, Metabolic Activation: RAT, LIVER, S-9, AROCLOR 1254, Method: STANDARD PLATE); “inactive; negative” (Test System: AMES SALMONELLA TYPHIMURIUM, Strain/Indicator: TA98, Metabolic Activation: HAMSTER, LIVER, S-9, AROCLOR 1254 (30%), Method: PREINCUBATION); “inactive; negative” under setting [1]; “inactive; negative” (Test System: AMES SALMONELLA TYPHIMURIUM, Strain/Indicator: TA98, Metabolic Activation: RAT LIVER S-9, PHENOBARBITAL AND BETA-NAPHTHOFLAVONE, Method: PREINCUBATION). The mutagenic call by setting is: (Test System: AMES SALMONELLA TYPHIMURIUM, Strain/Indicator: TA98, Metabolic Activation: RAT, LIVER, S-9, AROCLOR 1254 (30%), Method: PREINCUBATION) “inactive; negative”; under setting [2], “inactive; negative”; (Test System: AMES SALMONELLA TYPHIMURIUM, Strain/Indicator: TA100, Metabolic Activation: HAMSTER, LIVER, S-9, AROCLOR 1254 (30%), Method: PREINCUBATION) “active; positive”; under setting [3], “active; positive”; under setting [4], “active; positive”; (Test System: AMES SALMONELLA TYPHIMURIUM, Strain/Indicator: TA100, Metabolic Activation: RAT LIVER S-9, PHENOBARBITAL AND BETA-NAPHTHOFLAVONE, Method: PREINCUBATION) “active; positive”. Besides, the mutagenic call by setting is: (Test System: AMES SALMONELLA TYPHIMURIUM, Strain/Indicator: TA100, Metabolic Activation: RAT, LIVER, S-9, AROCLOR 1254 (30%), Method: PREINCUBATION) “active; positive”; (Test System: AMES SALMONELLA TYPHIMURIUM, Strain/Indicator: TA100, Metabolic Activation: RAT, LIVER, S-9, AROCLOR 1254, Method: STANDARD PLATE) “inactive; negative”; (Test System: AMES SALMONELLA TYPHIMURIUM, Strain/Indicator: TA104, Metabolic Activation: NONE, Method: STANDARD PLATE) “active; positive”; under setting [5], “active; positive”; (Test System: AMES SALMONELLA TYPHIMURIUM, Strain/Indicator: TA1535, Metabolic Activation: NONE, Method: STANDARD PLATE) “active; positive”; (Test System: AMES SALMONELLA TYPHIMURIUM, Strain/Indicator: TA1535, Metabolic Activation: RAT LIVER S-9, PHENOBARBITAL AND BETA-NAPHTHOFLAVONE, Method: PREINCUBATION) “active; positive”. Besides, the mutagenic call is “active; positive” under setting [6]; “inactive; negative” (Test System: AMES SALMONELLA TYPHIMURIUM, Strain/Indicator: TA1537, Metabolic Activation: RAT LIVER S-9, PHENOBARBITAL AND BETA-NAPHTHOFLAVONE, Method: PREINCUBATION); “active; positive” (Test System: AMES SALMONELLA TYPHIMURIUM, Strain/Indicator: TA4001, Metabolic Activation: NONE, Method: STANDARD PLATE); “active; positive” (Test System: AMES SALMONELLA TYPHIMURIUM, Strain/Indicator: TA4006, Metabolic Activation: NONE, Method: STANDARD PLATE); “inactive; negative” (Test System: CHINESE HAMSTER V-79, Strain/Indicator: V-79/6-THIOGUANINE, Metabolic Activation: NONE, Method: FLASK ASSAY); “active; positive” (Test System: CHINESE HAMSTER V-79, Strain/Indicator: V-79/8-AZAGUANINE, Metabolic Activation: NONE, Method: STANDARD PLATE). The mutagenic call is “active; positive” (Test System: E. COLI, Strain/Indicator: WP2 UVRA, Metabolic Activation: NONE, Method: STANDARD PLATE); “active; positive” (Test System: E.COLI, Strain/Indicator: WP2UVRA, Metabolic Activation: NONE, Method: PREINCUBATION); “active; positive” (Test System: E.COLI, Strain/Indicator: WP2UVRA, Metabolic Activation: RAT LIVER S-9, PHENOBARBITAL AND BETA-NAPHTHOFLAVONE, Method: PREINCUBATION); “active; positive” (Test System: HUMAN T LYMPHOCYTES, PRIMARY CULTURES, Strain/Indicator: HPRT/6-THIOGUANINE, Metabolic Activation: NONE, Method: SUSPENSION/PLATE); “active; positive” (Test System: UDS HUMAN CELLS, Strain/Indicator: THY INCORP (NON-S-PHASE), Metabolic Activation: NONE, Method: LIQUID SCINTILLATION COUNTING).
In the case of `CCCCCOc1ccc(N=O)cc1`, under setting [4], the mutagenic call was “active; positive”.
Take `CCCCC(CC)COS(=O)(=O)O` (centres undefined): the mutagenic call runs as follows: (End Point: IN VITRO CHROMOSOMAL ABERRATIONS, Test System: CHO-LB CELLS, Metabolic Activation: NONE) “inactive; negative”; (End Point: IN VITRO CHROMOSOMAL ABERRATIONS, Test System: CHO-LB CELLS, Metabolic Activation: RAT, LIVER, S-9, AROCLOR 1254) “inactive; negative”; (Test System: AMES SALMONELLA TYPHIMURIUM, Strain/Indicator: TA98, Metabolic Activation: HAMSTER, LIVER, S-9, AROCLOR 1254 (10%), Method: PREINCUBATION) “inactive; negative”; (Test System: AMES SALMONELLA TYPHIMURIUM, Strain/Indicator: TA98, Metabolic Activation: NONE, Method: PREINCUBATION) “inactive; negative”; (Test System: AMES SALMONELLA TYPHIMURIUM, Strain/Indicator: TA98, Metabolic Activation: RAT, LIVER, S-9, AROCLOR 1254 (10%), Method: PREINCUBATION) “inactive; negative”; (Test System: AMES SALMONELLA TYPHIMURIUM, Strain/Indicator: TA100, Metabolic Activation: HAMSTER, LIVER, S-9, AROCLOR 1254 (10%), Method: PREINCUBATION) “inactive; negative”. Moreover, the mutagenic call under setting [3] was “inactive; negative”; the mutagenic call (Test System: AMES SALMONELLA TYPHIMURIUM, Strain/Indicator: TA100, Metabolic Activation: RAT, LIVER, S-9, AROCLOR 1254 (10%), Method: PREINCUBATION) was “inactive; negative”; the mutagenic call (Test System: AMES SALMONELLA TYPHIMURIUM, Strain/Indicator: TA1535, Metabolic Activation: HAMSTER, LIVER, S-9, AROCLOR 1254 (10%), Method: PREINCUBATION) is “inactive; negative”; the mutagenic call under setting [5] is “inactive; negative”; the mutagenic call (Test System: AMES SALMONELLA TYPHIMURIUM, Strain/Indicator: TA1535, Metabolic Activation: RAT, LIVER, S-9, AROCLOR 1254 (10%), Method: PREINCUBATION) was “inactive; negative”; the mutagenic call (Test System: AMES SALMONELLA TYPHIMURIUM, Strain/Indicator: TA1537, Metabolic Activation: HAMSTER, LIVER, S-9, AROCLOR 1254 (10%), Method: PREINCUBATION) was “inactive; negative”. The mutagenic call is, setting by setting: under setting [6], “inactive; negative”; (Test System: AMES SALMONELLA TYPHIMURIUM, Strain/Indicator: TA1537, Metabolic Activation: RAT, LIVER, S-9, AROCLOR 1254 (10%), Method: PREINCUBATION) “inactive; negative”; (Test System: MOUSE LYMPHOMA, Strain/Indicator: L5178Y (TK+/TK-), Metabolic Activation: NONE, Method: SUSPENSION/PLATE) “inactive; negative”; (Test System: MOUSE LYMPHOMA, Strain/Indicator: L5178Y (TK+/TK-), Metabolic Activation: RAT, LIVER, S-9, AROCLOR 1254, Method: SUSPENSION/PLATE) “inactive; negative”.
Regarding `c1cc2c3c(c1)=C1OC1C=3Cc1cc3ccccc3cc1-2` (centres undefined), the mutagenic call is “active; positive” under setting [1] and “active; positive” under setting [2].
As for `CN(CCC#N)c1ccc(N=Nc2ccccc2)cc1`, the mutagenic call (Test System: AMES SALMONELLA TYPHIMURIUM, Strain/Indicator: TA98, Metabolic Activation: RAT, LIVER, S-9, AROCLOR, Method: PREINCUBATION) is “active; positive”.
For `O=C(Cc1ccccc1)NC(Cc1ccc(Cl)cc1)C(=O)O` (centres undefined), the mutagenic call (Test System: AMES SALMONELLA TYPHIMURIUM, Strain/Indicator: TA98, Metabolic Activation: NONE) was “inactive; negative”; the mutagenic call (Test System: AMES SALMONELLA TYPHIMURIUM, Strain/Indicator: TA100, Metabolic Activation: NONE) was “active; positive”; the mutagenic call (Test System: AMES SALMONELLA TYPHIMURIUM, Strain/Indicator: TA1535, Metabolic Activation: NONE) is “inactive; negative”; the mutagenic call (Test System: AMES SALMONELLA TYPHIMURIUM, Strain/Indicator: TA1537, Metabolic Activation: NONE) was “inactive; negative”; the mutagenic call (Test System: E. COLI, Strain/Indicator: AB2462 UVRA, Metabolic Activation: NONE, Method: SPOT TEST) is “inactive; negative”.
